Results published in US8106055B2, “Substituted amide compounds” (Gruenenthal GmbH, priority 2007, dated 2012).

What was measured:
human μ opiate receptor = target: T1, human μ opiate receptor (Homo sapiens, UniProt P35372); test: Affinity for the human μ opiate receptor ([3H]-naloxone displacement, CHO-K1 receptor membrane preparation, SPA); type: binding; settings: test concentration of 1 μM; read-out: μ (binding on the μ opioid receptor, % inhibition)
T1 construct: purchased PerkinElmer Life Sciences, Zaventem, Belgium RB-HOM; host or cells: CHO-K1 cells (membrane preparation)
Procedure, shortened: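 SPA, CHO-K1 hμ membranes; 1 nmol/l [3H]-naloxone; Tris-HCl 50 mmol/l + 0.06% BSA; 90 min RT; NSB with 100 μmol/l naloxone; β-counting. Readout: % inhibition of specific binding at 1 μM test compound.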

[1] = target: T2, serotonin (5-HT) reuptake (Rattus norvegicus, UniProt P31652); test: Inhibition of serotonin (5HT) reuptake in synaptosomes from rat brain; type: biochemical; settings: test concentration of 10 μM; read-out: 5-HT (inhibition of reuptake of serotonin, % inhibition)
T2 construct: synaptosomes are freshly isolated from areas of the rat brain; from tissue; host or cells: rat brain synaptosomes (P2 fraction)
Procedure, shortened: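 Compounds screened at 10 μM and reported as percent inhibition of serotonin uptake. Uptake measured in a freshly prepared P2 synaptosomal fraction from rat brain.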

T2 sequence (P31652 whole entry): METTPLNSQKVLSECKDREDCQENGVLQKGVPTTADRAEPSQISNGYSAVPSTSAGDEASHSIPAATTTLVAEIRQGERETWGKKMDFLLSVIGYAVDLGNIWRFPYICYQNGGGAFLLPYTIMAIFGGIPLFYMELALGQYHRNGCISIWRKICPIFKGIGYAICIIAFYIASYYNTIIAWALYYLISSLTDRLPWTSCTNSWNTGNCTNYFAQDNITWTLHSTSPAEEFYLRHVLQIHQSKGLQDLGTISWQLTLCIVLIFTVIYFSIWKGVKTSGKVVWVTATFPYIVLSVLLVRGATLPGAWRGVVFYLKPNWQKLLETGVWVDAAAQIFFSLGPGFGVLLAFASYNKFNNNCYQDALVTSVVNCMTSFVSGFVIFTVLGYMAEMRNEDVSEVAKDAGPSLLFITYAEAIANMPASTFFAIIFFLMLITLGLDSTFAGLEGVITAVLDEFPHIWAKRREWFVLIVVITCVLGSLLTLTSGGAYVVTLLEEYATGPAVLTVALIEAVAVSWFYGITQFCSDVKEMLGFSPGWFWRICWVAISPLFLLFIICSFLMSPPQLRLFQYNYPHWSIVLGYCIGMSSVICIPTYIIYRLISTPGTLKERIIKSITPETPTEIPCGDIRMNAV
T1 sequence (P35372 whole entry): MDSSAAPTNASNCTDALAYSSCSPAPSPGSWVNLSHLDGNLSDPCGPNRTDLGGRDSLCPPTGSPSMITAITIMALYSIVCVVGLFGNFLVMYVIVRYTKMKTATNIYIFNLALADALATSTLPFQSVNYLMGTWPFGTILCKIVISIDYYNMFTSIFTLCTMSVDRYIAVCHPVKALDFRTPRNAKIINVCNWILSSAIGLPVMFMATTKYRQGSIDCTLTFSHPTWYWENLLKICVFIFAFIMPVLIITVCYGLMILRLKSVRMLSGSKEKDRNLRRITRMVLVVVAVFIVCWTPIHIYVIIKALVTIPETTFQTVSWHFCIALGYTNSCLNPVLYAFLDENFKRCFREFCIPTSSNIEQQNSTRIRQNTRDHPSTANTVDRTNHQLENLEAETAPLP

COc1cc(C)c(S(=O)(=O)N2CCC(OCC(=O)NC3CCC(C(c4cccs4)N(C)C)CC3)CC2)c(C)c1C (centres unmarked) [Example 1, N-(4-((dimethylamino)(thiophen-2-yl)methyl)cyclohexyl)-2-(1-(4-methoxy-2,3,6-trimethylphenylsulfonyl)piperidin-4-yloxy)acetamide]
inhibition at 1 µM (human μ opiate receptor): 100%
inhibition at 10 µM [1]: 94%

Cc1ccc(S(=O)(=O)N(C)CCOCC(=O)NCC2CCC(C(c3cccs3)N(C)C)CC2)cc1 (centres unmarked) [Example 4, N-((4-((dimethylamino)(thiophen-2-yl)methyl)cyclohexyl)methyl)-2-(2-(N,4-dimethylphenylsulfonamido)ethoxy)acetamide]
inhibition at 1 µM (human μ opiate receptor): 99%
inhibition at 10 µM [1]: 92%

COc1cc(C)c(S(=O)(=O)N2CCC(CCOCC(=O)NC3CCC(C(c4cccs4)N(C)C)CC3)CC2)c(C)c1C (centres unmarked) [Example 5, N-(4-((dimethylamino)(thiophen-2-yl)methyl)cyclohexyl)-2-(2-(1-(4-methoxy-2,3,6-trimethylphenylsulfonyl)piperidin-4-yl)ethoxy)acetamide]
inhibition at 1 µM (human μ opiate receptor): 99%
inhibition at 10 µM [1]: 87%

CN(C)C(c1ccccc1)C1CCC(NC(=O)COCCN(C)S(=O)(=O)c2c(Cl)cc(Cl)cc2Cl)CC1 (centres unmarked) [Example 34, N-(4-((dimethylamino)(phenyl)methyl)cyclohexyl)-2-(2-(2,4,6-trichloro-N-methylphenylsulfonamido)ethoxy)acetamide]
inhibition at 1 µM (human μ opiate receptor): 96%
inhibition at 10 µM [1]: 79%

COc1cc(C)c(S(=O)(=O)N(C)CCOCC(=O)NCC2CCC(C(c3cccs3)N(C)C)CC2)c(C)c1C (centres unmarked) [Example 35, N-((4-((dimethylamino)(thiophen-2-yl)methyl)cyclohexyl)methyl)-2-(2-(4-methoxy-N,2,3,6-tetramethylphenylsulfonamido)ethoxy)acetamide]
inhibition at 1 µM (human μ opiate receptor): 96%
inhibition at 10 µM [1]: 84%

CN(C)C(c1cccs1)C1CCC(CNC(=O)COC2CCN(S(=O)(=O)c3ccccc3)C2)CC1 (centres unmarked) [Example 36, N-((4-((dimethylamino)(thiophen-2-yl)methyl)cyclohexyl)methyl)-2-(1-(phenylsulfonyl)pyrrolidin-3-yloxy)acetamide]
inhibition at 1 µM (human μ opiate receptor): 96%
inhibition at 10 µM [1]: 102%

CN(C)C(c1cccs1)C1CCC(CCNC(=O)COCCN(C)S(=O)(=O)c2ccc(Cl)cc2)CC1 (centres unmarked) [Example 37, 2-(2-(4-chloro-N-methylphenylsulfonamido)ethoxy)-N-(2-(4-((dimethylamino)(thiophen-2-yl)methyl)cyclohexyl)ethyl)acetamide]
inhibition at 1 µM (human μ opiate receptor): 96%
inhibition at 10 µM [1]: 90%

COc1ccc(S(=O)(=O)N2Cc3ccccc3CC2COCC(=O)NC2CCC(C(c3ccccc3)N(C)C)CC2)cc1 (centres unmarked) [Example 38, N-(4-((dimethylamino)(phenyl)methyl)cyclohexyl)-2-((2-(4-methoxyphenylsulfonyl)-1,2,3,4-tetrahydroisoquinolin-3-yl)methoxy)acetamide]
inhibition at 1 µM (human μ opiate receptor): 96%
inhibition at 10 µM [1]: 61%

CN(C)C(c1ccccc1)C1CCC(NC(=O)COC2CCCCC2N(C)S(=O)(=O)c2ccc(Cl)c(Cl)c2)CC1 (centres unmarked) [Example 39, 2-(2-(3,4-dichloro-N-methylphenylsulfonamido)cyclohexyloxy)-N-(4-((dimethylamino)(phenyl)methyl)cyclohexyl)acetamide]
inhibition at 1 µM (human μ opiate receptor): 96%
inhibition at 10 µM [1]: 91%

CN(C)C(c1cccc(F)c1)C1CCC(CCNC(=O)COCCN(C)S(=O)(=O)c2c(Cl)cccc2Cl)CC1 (centres unmarked) [Example 41, 2-(2-(2,6-dichloro-N-methylphenylsulfonamido)ethoxy)-N-(2-(4-((dimethylamino)(3-fluorophenyl)methyl)cyclohexyl)ethyl)acetamide]
inhibition at 1 µM (human μ opiate receptor): 96%
inhibition at 10 µM [1]: 79%

CN(C)C(c1cccs1)C1CCC(NC(=O)COC2CCCN(S(=O)(=O)c3ccccc3)C2)CC1 (centres unmarked) [Example 42, N-(4-((dimethylamino)(thiophen-2-yl)methyl)cyclohexyl)-2-(1-(phenylsulfonyl)piperidin-3-yloxy)acetamide]
inhibition at 1 µM (human μ opiate receptor): 96%
inhibition at 10 µM [1]: 91%

COc1cc(C)c(S(=O)(=O)N2CCC(OCC(=O)NC3CCC(C(c4cccs4)N(C)C)CC3)C2)c(C)c1C (centres unmarked) [Example 43, N-(4-((dimethylamino)(thiophen-2-yl)methyl)cyclohexyl)-2-(1-(4-methoxy-2,3,6-trimethylphenylsulfonyl)pyrrolidin-3-yloxy)acetamide]
inhibition at 1 µM (human μ opiate receptor): 96%
inhibition at 10 µM [1]: 90%

COc1cc(C)c(S(=O)(=O)N2CCC(OCC(=O)NCC3CCC(C(c4ccccc4)N(C)C)CC3)C2)c(C)c1C (centres unmarked) [Example 44, N-((4-((dimethylamino)(phenyl)methyl)cyclohexyl)methyl)-2-(1-(4-methoxy-2,3,6-trimethylphenylsulfonyl)pyrrolidin-3-yloxy)acetamide]
inhibition at 1 µM (human μ opiate receptor): 96%
inhibition at 10 µM [1]: 94%

COc1ccc(S(=O)(=O)N2CCCCC2COCC(=O)NCC2CCC(C(c3cccs3)N(C)C)CC2)cc1 (centres unmarked) [Example 45, N-((4-((dimethylamino)(thiophen-2-yl)methyl)cyclohexyl)methyl)-2-((1-(4-methoxyphenylsulfonyl)piperidin-2-yl)methoxy)acetamide]
inhibition at 1 µM (human μ opiate receptor): 96%
inhibition at 10 µM [1]: 91%

COc1ccc(S(=O)(=O)N2CCCCC2CCOCC(=O)NCCC2CCC(C(c3cccs3)N(C)C)CC2)cc1 (centres unmarked) [Example 46, N-(2-(4-((dimethylamino)(thiophen-2-yl)methyl)cyclohexyl)ethyl)-2-(2-(1-(4-methoxyphenylsulfonyl)piperidin-2-yl)ethoxy)acetamide]
inhibition at 1 µM (human μ opiate receptor): 96%
inhibition at 10 µM [1]: 96%

COc1ccc(S(=O)(=O)N2Cc3ccccc3CC2COCC(=O)NC2CCC(C(c3cccs3)N(C)C)CC2)cc1 (centres unmarked) [Example 47, N-(4-((dimethylamino)(thiophen-2-yl)methyl)cyclohexyl)-2-((2-(4-methoxyphenylsulfonyl)-1,2,3,4-tetrahydroisoquinolin-3-yl)methoxy)acetamide]
inhibition at 1 µM (human μ opiate receptor): 96%
inhibition at 10 µM [1]: 98%

COc1ccc(S(=O)(=O)N2Cc3ccccc3CC2COCC(=O)NCCC2CCC(C(c3cccs3)N(C)C)CC2)cc1 (centres unmarked) [Example 48, N-(2-(4-((dimethylamino)(thiophen-2-yl)methyl)cyclohexyl)ethyl)-2-((2-(4-methoxyphenylsulfonyl)-1,2,3,4-tetrahydroisoquinolin-3-yl)methoxy)acetamide]
inhibition at 1 µM (human μ opiate receptor): 96%
inhibition at 10 µM [1]: 101%

COc1ccc(S(=O)(=O)N2CCCCC2COCC(=O)NCC2CCC(C(c3cccs3)N(C)C)CC2)c(OC)c1 (centres unmarked) [Example 49, 2-((1-(2,4-dimethoxyphenylsulfonyl)piperidin-2-yl)methoxy)-N-((4-((dimethylamino)(thiophen-2-yl)methyl)cyclohexyl)methyl)acetamide]
inhibition at 1 µM (human μ opiate receptor): 96%
inhibition at 10 µM [1]: 86%

COc1cc(C)c(S(=O)(=O)N(C)CCOCC(=O)NCCC2CCC(C(c3cccs3)N(C)C)CC2)c(C)c1C (centres unmarked) [Example 52, N-(2-(4-((dimethylamino)(thiophen-2-yl)methyl)cyclohexyl)ethyl)-2-(2-(4-methoxy-N,2,3,6-tetramethylphenylsulfonamido)ethoxy)acetamide]
inhibition at 1 µM (human μ opiate receptor): 95%
inhibition at 10 µM [1]: 91%

CN(C)C(c1ccccc1)C1CCC(CNC(=O)COCCN(C)S(=O)(=O)c2ccc(OC(F)(F)F)cc2)CC1 (centres unmarked) [Example 53, N-((4-((dimethylamino)(phenyl)methyl)cyclohexyl)methyl)-2-(2-(N-methyl-4-(trifluoromethoxy)phenylsulfonamido)ethoxy)acetamide]
inhibition at 1 µM (human μ opiate receptor): 95%
inhibition at 10 µM [1]: 92%

CN(C)C(c1cccs1)C1CCC(CNC(=O)COC2CCN(S(=O)(=O)c3ccc(Cl)cc3)C2)CC1 (centres unmarked) [Example 54, 2-(1-(4-chlorophenylsulfonyl)pyrrolidin-3-yloxy)-N-((4-((dimethylamino)(thiophen-2-yl)methyl)cyclohexyl)methyl)acetamide]
inhibition at 1 µM (human μ opiate receptor): 95%
inhibition at 10 µM [1]: 84%

CN(C)C(c1cccs1)C1CCC(CNC(=O)COCCN(C)S(=O)(=O)c2ccc(Cl)cc2)CC1 (centres unmarked) [Example 55, 2-(2-(4-chloro-N-methylphenylsulfonamido)ethoxy)-N-((4-((dimethylamino)(thiophen-2-yl)methyl)cyclohexyl)methyl)acetamide]
inhibition at 1 µM (human μ opiate receptor): 95%
inhibition at 10 µM [1]: 92%

CN(C)C(c1cccs1)C1CCC(CNC(=O)COCCN(C)S(=O)(=O)c2ccc(F)cc2)CC1 (centres unmarked) [Example 56, N-((4-((dimethylamino)(thiophen-2-yl)methyl)cyclohexyl)methyl)-2-(2-(4-fluoro-N-methylphenylsulfonamido)ethoxy)acetamide]
inhibition at 1 µM (human μ opiate receptor): 95%
inhibition at 10 µM [1]: 100%

Cc1cc(C)c(S(=O)(=O)N(C)CCOCC(=O)NCC2CCC(C(c3cccs3)N(C)C)CC2)c(C)c1 (centres unmarked) [Example 57, N-((4-((dimethylamino)(thiophen-2-yl)methyl)cyclohexyl)methyl)-2-(2-(N,2,4,6-tetramethylphenylsulfonamido)ethoxy)acetamide]
inhibition at 1 µM (human μ opiate receptor): 95%
inhibition at 10 µM [1]: 101%

COc1cc(C)c(S(=O)(=O)N2CCC(OCC(=O)NCC3CCC(C(c4cccs4)N(C)C)CC3)C2)c(C)c1C (centres unmarked) [Example 58, N-((4-((dimethylamino)(thiophen-2-yl)methyl)cyclohexyl)methyl)-2-(1-(4-methoxy-2,3,6-trimethylphenylsulfonyl)pyrrolidin-3-yloxy)acetamide]
inhibition at 1 µM (human μ opiate receptor): 95%
inhibition at 10 µM [1]: 94%
